Experimental data reported in ChEMBL document CHEMBL1909046, “DrugMatrix in vitro pharmacology data”.

Experiments:
[1] = target: Mitogen-activated protein kinase 3 (Homo sapiens, UniProt P27361); assay: DRUGMATRIX: Protein Serine/Threonine Kinase, ERK1 enzyme inhibition (substrate: Myelin Basic Protein); parameters: species or system Escherichia coli; conditions: Not Active = under 50% inhibition at 10 µM
[2] = target: T1, Cholecystokinin receptor type A (Homo sapiens, UniProt P32238); assay type: cell membranes, Membrane; conditions: 1321-n1; further: in other assays of this panel Not Active means under 50% inhibition at 10 µM
T1 sequence (P32238 whole entry): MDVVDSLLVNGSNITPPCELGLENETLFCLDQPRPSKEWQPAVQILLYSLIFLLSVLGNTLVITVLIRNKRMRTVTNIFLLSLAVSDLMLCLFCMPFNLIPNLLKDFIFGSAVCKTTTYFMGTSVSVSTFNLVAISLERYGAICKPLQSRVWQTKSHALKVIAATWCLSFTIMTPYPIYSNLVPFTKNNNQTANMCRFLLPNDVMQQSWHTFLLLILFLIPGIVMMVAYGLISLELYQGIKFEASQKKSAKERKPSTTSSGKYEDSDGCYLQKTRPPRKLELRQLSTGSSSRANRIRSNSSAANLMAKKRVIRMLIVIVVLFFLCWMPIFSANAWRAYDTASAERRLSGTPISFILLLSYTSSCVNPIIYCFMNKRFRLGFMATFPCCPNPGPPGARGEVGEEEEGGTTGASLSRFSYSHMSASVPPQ

Cytochrome P450 2D6 = Cytochrome P450 2D6 (Homo sapiens, UniProt P10635); conditions: bti-tn-5b1-4; further: in other assays of this panel Not Active means under 50% inhibition at 10 µM
[3] = target: Aldo-keto reductase family 1 member B1 (Rattus norvegicus, UniProt P07943); assay: biochemical; assay type: tissue-based, Lens of camera-type eye;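 further: inhibition of aldose reductase enzyme activity, measured with DL-glyceraldehyde as the substrate; in other assays of this panel Not Active means under 50% inhibition at 10 µM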
[4] = DRUGMATRIX: Tumor Necrosis Factor (TNF), Non-Selective radioligand binding (ligand: [125I] TNF-alpha); assay type: cell membranes, Membrane; conditions: u-937; Not Active = under 50% inhibition at 10 µM
Adenosine receptor A1 = target: T2, Adenosine receptor A1 (Homo sapiens, UniProt P30542); assay type: cell membranes, CHO, Membrane; conditions: cho;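 further: radioligand binding assay at the adenosine A1 receptor, with DPCPX serving as the labelled ligand; in other assays of this panel Not Active means under 50% inhibition at 10 µM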
T2 sequence (P30542 whole entry): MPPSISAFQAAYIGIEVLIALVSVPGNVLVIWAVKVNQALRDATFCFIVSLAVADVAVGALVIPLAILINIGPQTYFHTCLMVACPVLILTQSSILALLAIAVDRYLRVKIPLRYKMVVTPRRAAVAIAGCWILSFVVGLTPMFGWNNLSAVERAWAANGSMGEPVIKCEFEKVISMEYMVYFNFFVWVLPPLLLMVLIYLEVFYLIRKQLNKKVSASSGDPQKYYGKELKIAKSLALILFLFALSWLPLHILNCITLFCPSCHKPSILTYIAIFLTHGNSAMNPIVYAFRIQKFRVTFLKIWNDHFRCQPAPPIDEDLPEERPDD

[5] = target: Beta-3 adrenergic receptor (Homo sapiens, UniProt P13945); assay: DRUGMATRIX: Adrenergic beta3 radioligand binding (ligand: [125I] Cyanopindolol); assay type: cell membranes, HEK293, Membrane; conditions: hek293; Not Active = under 50% inhibition at 10 µM
Beta-3 adrenergic receptor, sequence (P13945 whole entry): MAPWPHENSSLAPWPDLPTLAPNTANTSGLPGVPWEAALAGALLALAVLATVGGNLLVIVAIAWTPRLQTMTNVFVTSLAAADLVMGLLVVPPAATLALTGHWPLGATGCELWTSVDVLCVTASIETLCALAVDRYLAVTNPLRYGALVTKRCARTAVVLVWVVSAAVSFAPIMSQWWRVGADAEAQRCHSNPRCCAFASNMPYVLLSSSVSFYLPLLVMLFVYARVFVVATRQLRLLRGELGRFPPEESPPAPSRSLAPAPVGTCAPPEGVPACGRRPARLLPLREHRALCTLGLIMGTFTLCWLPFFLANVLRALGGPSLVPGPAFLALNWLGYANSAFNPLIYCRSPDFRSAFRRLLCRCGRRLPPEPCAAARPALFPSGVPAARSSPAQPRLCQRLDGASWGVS

Mitogen-activated protein kinase 3, sequence (P27361 whole entry): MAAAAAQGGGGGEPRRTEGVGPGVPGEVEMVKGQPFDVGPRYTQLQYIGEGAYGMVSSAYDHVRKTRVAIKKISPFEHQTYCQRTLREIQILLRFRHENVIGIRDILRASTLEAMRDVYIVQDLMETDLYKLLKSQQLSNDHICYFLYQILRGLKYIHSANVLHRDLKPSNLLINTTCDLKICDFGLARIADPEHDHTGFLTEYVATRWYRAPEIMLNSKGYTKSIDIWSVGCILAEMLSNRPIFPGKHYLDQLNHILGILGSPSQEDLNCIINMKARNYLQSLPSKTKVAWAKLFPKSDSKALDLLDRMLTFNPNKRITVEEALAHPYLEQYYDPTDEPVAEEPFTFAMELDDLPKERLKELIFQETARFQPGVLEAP
Cytochrome P450 2D6, sequence (P10635 whole entry): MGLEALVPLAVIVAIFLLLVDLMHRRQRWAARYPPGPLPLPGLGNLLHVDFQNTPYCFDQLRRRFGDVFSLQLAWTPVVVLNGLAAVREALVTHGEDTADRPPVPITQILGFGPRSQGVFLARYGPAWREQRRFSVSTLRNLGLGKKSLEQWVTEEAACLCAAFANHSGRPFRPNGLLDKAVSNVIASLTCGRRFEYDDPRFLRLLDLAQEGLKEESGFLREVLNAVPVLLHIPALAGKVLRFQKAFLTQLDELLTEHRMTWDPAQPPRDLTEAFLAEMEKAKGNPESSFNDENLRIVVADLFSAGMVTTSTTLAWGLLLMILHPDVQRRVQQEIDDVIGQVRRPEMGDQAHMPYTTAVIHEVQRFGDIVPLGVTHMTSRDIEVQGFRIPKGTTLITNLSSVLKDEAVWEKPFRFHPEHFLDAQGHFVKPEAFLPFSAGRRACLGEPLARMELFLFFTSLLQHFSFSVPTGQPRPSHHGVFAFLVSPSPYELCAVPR

Molecule | IC50 [1] | IC50 [2] | IC50 (Cytochrome P450 2D6) | Ki (Cytochrome P450 2D6) | IC50 [3] | IC50 [4] | Ki [4] | IC50 (Adenosine receptor A1) | IC50 [5] | IC50 ([3]; read-out: IC50) | Ki [1] | Ki [2] | Ki [3] | Ki (Adenosine receptor A1) | Ki [5]
NC[C@H]1CC[C@H](C(=O)O)CC1 [TRANEXAMIC ACID] | Not Active | Not Active | Not Active | Not Active | Not Active | Not Active | Not Active | Not Active | Not Active | – | – | – | – | – | –
CC1(C)O[C@@H]2C[C@H]3[C@@H]4CCC5=CC(=O)C=C[C@]5(C)[C@@]4(F)[C@@H](O)C[C@]3(C)[C@]2(C(=O)CO)O1 [TRIAMCINOLONE ACETONIDE] | Not Active | Not Active | Not Active | Not Active | Not Active | Not Active | Not Active | Not Active | Not Active | – | – | – | – | – | –
NS(=O)(=O)c1cc2c(cc1Cl)NC(C(Cl)Cl)NS2(=O)=O (stereo unspecified) [TRICHLORMETHIAZIDE] | Not Active | Not Active | Not Active | Not Active | Not Active | Not Active | Not Active | Not Active | Not Active | – | – | – | – | – | –
Cc1c(C)c2c(c(C)c1O)CCC(C)(COc1ccc(CC3SC(=O)NC3=O)cc1)O2 (stereo unspecified) [TROGLITAZONE] | Not Active | Not Active | Not Active | Not Active | – | Not Active | Not Active | Not Active | Not Active | 2040 nM | – | – | – | – | –
N[C@@H]1[C@H]2CN(c3nc4c(cc3F)c(=O)c(C(=O)O)cn4-c3ccc(F)cc3F)C[C@@H]12 [TROVAFLOXACIN] | Not Active | Not Active | Not Active | Not Active | Not Active | Not Active | Not Active | Not Active | Not Active | – | – | – | – | – | –
N#CC(C#N)=Cc1ccc(O)c(O)c1 [TYRPHOSTIN 23] | Not Active | Not Active | Not Active | Not Active | – | Not Active | Not Active | Not Active | Not Active | 202 nM | – | – | – | – | –
CC[C@]1(O)C[C@H]2CN(CCc3c([nH]c4ccccc34)[C@@](C(=O)OC)(c3cc4c(cc3OC)N(C=O)[C@H]3[C@@](O)(C(=O)OC)[C@H](OC(C)=O)[C@]5(CC)C=CCN6CC[C@]43[C@@H]65)C2)C1 [VINCRISTINE] | Not Active | Not Active | Not Active | Not Active | Not Active | Not Active | Not Active | Not Active | Not Active | – | – | – | – | – | –
CCCOc1ccccc1-c1nc2nn[nH]c2c(=O)[nH]1 [ZAPRINAST] | Not Active | Not Active | Not Active | Not Active | Not Active | Not Active | Not Active | Not Active | Not Active | – | – | – | – | – | –
SODIUM NITROPRUSSIDE | Not Active | Not Active | Not Active | Not Active | Not Active | Not Active | Not Active | Not Active | Not Active | – | Not Active | Not Active | Not Active | Not Active | Not Active
